Measured values from PubChem BioAssay (NCI).
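Five compound concentrations were applied to cells in 96-well plates for 48 hours; endpoints were derived by simple linear interpolation of the resulting dose-response curve. Definition used: TGI = concentration required for complete inhibition of growth.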

How the values were obtained:
Test in all cases: DTP human tumour cell line panel, 48 h
786-0 renal = system: 786-0 renal
A498 renal = system: A498 renal
A549 NSCLC = system: A549 NSCLC
ACHN renal = system: ACHN renal
BT-549 breast = system: BT-549 breast
CAKI-1 renal = system: CAKI-1 renal
CCRF-CEM leukemia = system: CCRF-CEM leukemia
COLO 205 colon = system: COLO 205 colon
DU-145 prostate = system: DU-145 prostate
EKVX NSCLC = system: EKVX NSCLC
HCT-116 colon = system: HCT-116 colon
HCT-15 colon = system: HCT-15 colon
HL-60(TB) leukemia = system: HL-60(TB) leukemia
HOP-62 NSCLC = system: HOP-62 NSCLC
HOP-92 NSCLC = system: HOP-92 NSCLC
HS 578T breast = system: HS 578T breast
HT29 colon = system: HT29 colon
IGROV1 ovarian = system: IGROV1 ovarian
K-562 leukemia = system: K-562 leukemia
KM12 colon = system: KM12 colon
LOX IMVI melanoma = system: LOX IMVI melanoma
M14 melanoma = system: M14 melanoma
MALME-3M melanoma = system: MALME-3M melanoma
MCF7 breast = system: MCF7 breast
MDA-MB-231 breast = system: MDA-MB-231 breast
MDA-MB-435 = system: MDA-MB-435
MDA-N = system: MDA-N
MOLT-4 leukemia = system: MOLT-4 leukemia
NCI-H226 lung = system: NCI-H226 lung
NCI-H23 lung = system: NCI-H23 lung
NCI-H460 lung = system: NCI-H460 lung
NCI-H522 lung = system: NCI-H522 lung
NCI/ADR-RES ovarian = system: NCI/ADR-RES ovarian
OVCAR-3 ovarian = system: OVCAR-3 ovarian
OVCAR-4 ovarian = system: OVCAR-4 ovarian
OVCAR-5 ovarian = system: OVCAR-5 ovarian
OVCAR-8 ovarian = system: OVCAR-8 ovarian
PC-3 prostate = system: PC-3 prostate
RPMI-8226 leukemia = system: RPMI-8226 leukemia
RXF 393 renal = system: RXF 393 renal
SF-268 CNS = system: SF-268 CNS
SF-295 CNS = system: SF-295 CNS
SF-539 CNS = system: SF-539 CNS
SK-MEL-2 melanoma = system: SK-MEL-2 melanoma
SK-MEL-28 melanoma = system: SK-MEL-28 melanoma
SK-MEL-5 melanoma = system: SK-MEL-5 melanoma
SK-OV-3 ovarian = system: SK-OV-3 ovarian
SN12C renal = system: SN12C renal
SNB-19 CNS = system: SNB-19 CNS
SNB-75 CNS = system: SNB-75 CNS
SR leukemia = system: SR leukemia
SW-620 colon = system: SW-620 colon
T-47D breast = system: T-47D breast
TK-10 renal = system: TK-10 renal
U251 CNS = system: U251 CNS
UACC-257 melanoma = system: UACC-257 melanoma
UACC-62 melanoma = system: UACC-62 melanoma
UO-31 renal = system: UO-31 renal

Question: `O=C1C[C@@H](Sc2ccccc2)C2(OCCO2)C2ON3CCCC[C@H]3[C@H]12` (stereo partly drawn) was tested. Which TGI (786-0 renal) did it give?
Answer: Its TGI is 12.7 µM.

Question: What about the TGI (A498 renal) of the same compound?
Answer: Its TGI is greater than 95.3 µM.

Question: What about the TGI (A549 NSCLC) of the same compound?
Answer: Its TGI is 31.4 µM.

Question: What about the TGI (ACHN renal) of the same compound?
Answer: The TGI was 6.33 µM.

Question: What about the TGI (BT-549 breast) of the same compound?
Answer: Its TGI is 20.7 µM.

Question: And the TGI (CAKI-1 renal)?
Answer: Its TGI is 21 µM.

Question: What about the TGI (CCRF-CEM leukemia) of the same compound?
Answer: The TGI was 4.71 µM.

Question: What about the TGI (COLO 205 colon) of the same compound?
Answer: The TGI was 27.1 µM.

Question: And the TGI (DU-145 prostate)?
Answer: The TGI was 24.5 µM.

Question: What about the TGI (EKVX NSCLC) of the same compound?
Answer: The TGI was 26.1 µM.

Question: And the TGI (HCT-116 colon)?
Answer: Its TGI is 16.7 µM.

Question: And the TGI (HCT-15 colon)?
Answer: The TGI was greater than 29.6 µM.

Question: What about the TGI (HL-60(TB) leukemia) of the same compound?
Answer: The TGI was 4.9 µM.

Question: And the TGI (HOP-62 NSCLC)?
Answer: The TGI was 33 µM.

Question: And the TGI (HOP-92 NSCLC)?
Answer: The TGI was 19.2 µM.

Question: What about the TGI (HS 578T breast) of the same compound?
Answer: The TGI was 31 µM.

Question: What about the TGI (HT29 colon) of the same compound?
Answer: The TGI was 15.7 µM.

Question: What about the TGI (IGROV1 ovarian) of the same compound?
Answer: Its TGI is 19.2 µM.

Question: And the TGI (K-562 leukemia)?
Answer: Its TGI is 6.79 µM.

Question: And the TGI (KM12 colon)?
Answer: The TGI was 19.7 µM.

Question: What about the TGI (LOX IMVI melanoma) of the same compound?
Answer: The TGI was 10.1 µM.

Question: And the TGI (M14 melanoma)?
Answer: Its TGI is 30.3 µM.

Question: What about the TGI (MALME-3M melanoma) of the same compound?
Answer: Its TGI is 22.9 µM.

Question: What about the TGI (MCF7 breast) of the same compound?
Answer: Its TGI is 14.3 µM.

Question: And the TGI (MDA-MB-231 breast)?
Answer: The TGI was 25.9 µM.

Question: And the TGI (MDA-MB-435)?
Answer: The TGI was 34.7 µM.

Question: What about the TGI (MDA-N) of the same compound?
Answer: Its TGI is 33.3 µM.

Question: And the TGI (MOLT-4 leukemia)?
Answer: Its TGI is 5.1 µM.

Question: And the TGI (NCI-H226 lung)?
Answer: The TGI was 33.2 µM.

Question: And the TGI (NCI-H23 lung)?
Answer: Its TGI is 22.8 µM.

Question: What about the TGI (NCI-H460 lung) of the same compound?
Answer: The TGI was 28.8 µM.

Question: What about the TGI (NCI-H522 lung) of the same compound?
Answer: Its TGI is 6.93 µM.

Question: And the TGI (NCI/ADR-RES ovarian)?
Answer: The TGI was 18.9 µM.

Question: And the TGI (OVCAR-3 ovarian)?
Answer: The TGI was 26.8 µM.

Question: What about the TGI (OVCAR-4 ovarian) of the same compound?
Answer: Its TGI is 21.8 µM.

Question: And the TGI (OVCAR-5 ovarian)?
Answer: Its TGI is 33.5 µM.

Question: What about the TGI (OVCAR-8 ovarian) of the same compound?
Answer: Its TGI is 13.9 µM.

Question: And the TGI (PC-3 prostate)?
Answer: Its TGI is 24.2 µM.

Question: And the TGI (RPMI-8226 leukemia)?
Answer: Its TGI is 12.5 µM.

Question: What about the TGI (RXF 393 renal) of the same compound?
Answer: Its TGI is 12.3 µM.

Question: And the TGI (SF-268 CNS)?
Answer: Its TGI is 23.3 µM.

Question: What about the TGI (SF-295 CNS) of the same compound?
Answer: Its TGI is 38.4 µM.

Question: And the TGI (SF-539 CNS)?
Answer: The TGI was 4.5 µM.

Question: And the TGI (SK-MEL-2 melanoma)?
Answer: Its TGI is 39.8 µM.

Question: What about the TGI (SK-MEL-28 melanoma) of the same compound?
Answer: Its TGI is 41.6 µM.

Question: What about the TGI (SK-MEL-5 melanoma) of the same compound?
Answer: The TGI was 20.7 µM.

Question: And the TGI (SK-OV-3 ovarian)?
Answer: The TGI was greater than 100 µM.

Question: And the TGI (SN12C renal)?
Answer: The TGI was 14.8 µM.

Question: What about the TGI (SNB-19 CNS) of the same compound?
Answer: Its TGI is 32.1 µM.

Question: And the TGI (SNB-75 CNS)?
Answer: The TGI was 29.9 µM.

Question: What about the TGI (SR leukemia) of the same compound?
Answer: The TGI was 4.35 µM.

Question: What about the TGI (SW-620 colon) of the same compound?
Answer: Its TGI is 14.4 µM.

Question: And the TGI (T-47D breast)?
Answer: The TGI was 46.8 µM.

Question: And the TGI (TK-10 renal)?
Answer: The TGI was 13 µM.

Question: What about the TGI (U251 CNS) of the same compound?
Answer: The TGI was greater than 39.5 µM.

Question: And the TGI (UACC-257 melanoma)?
Answer: The TGI was 28.1 µM.

Question: And the TGI (UACC-62 melanoma)?
Answer: The TGI was 18.5 µM.

Question: What about the TGI (UO-31 renal) of the same compound?
Answer: Its TGI is 17.3 µM.
